Data on 21 molecules can be found in patent publication US6387912B1, “Utilization of pyrimidine derivatives for preventing and treating cerebral ischaemia” (BASF Aktiengesellschaft, priority 1999, dated 2002).

Structures can show the parent of a compound that is named as a salt.

The molecule `Cc1c(C(=O)N(C)C)sc2ncn(CCN3CCN(c4cccc5c4CCC5)CC3)c(=O)c12` [Example 14, 3,4-Dihydro-5-methyl-6-dimethylcarbamoyl-3-[2-(4-indan-4-ylpiperazin-1-yl)ethyl]thieno[2,3-d]pyrimidin-4-one] yielded a melting point of 153 °C. For `Cc1cccc(N2CCN(CCn3cnc4sc5c(c4c3=O)CCN(C)C5)CC2)n1` [Example 126, 3,4,5,6,7,8-Hexahydro-7-methyl-3-[2-(4-(6-methylpyridin-2-yl)piperazin-1-yl)ethyl]pyrido[4′,3′:4,5]thieno[2,3-d]-pyrimidin-4-one] the value was 138 to 140 °C; for `COc1ccccc1N1CCN(CCn2cnc3sc4c(c3c2=O)CCNC4)CC1` [Example 115, 3,4,5,6,7,8-Hexahydro-3-[2-(4-(2-methoxyphenyl)-piperazin-1-yl)ethyl]pyrido[4′,3′:4,5]thieno[2,3-d]pyrimidin-4-one], 168 to 170 °C; for `COc1ccc(N2CCN(CCn3cnc4sc(C(=O)N(C)C)c(C)c4c3=O)CC2)c(OC)c1` [Example 30, 3,4-Dihydro-5-methyl-6-dimethylcarbamoyl-3-[2-(4-(2,4-dimethoxyphenyl)piperazin-1-yl)ethyl]thieno-[2,3-d]pyrimidin-4-one], 170 to 171 °C. For `COc1ccccc1N1CCN(CCCn2cnc3sc4c(c3c2=N)CCN(C)C4)CC1` [Example 15, 3,4,5,6,7,8-Hexahydro-7-methyl-3-[3-(4-(2-methoxyphenyl)-piperazin-1-yl)propyl]pyrido[4′,3′:4,5]thieno[2,3-d]pyrimidin-4-imine] the value was 112 to 114 °C; for `CCOC(=O)N1Cc2sc3ncn(CCCN4CCN(c5ccccc5C#N)CC4)c(=O)c3c2C1` [Example 43, 3,4,5,7-Tetrahydro-6-carboethoxy-3-[3-(4-(2-cyanophenyl)-piperazin-1-yl)propyl]pyrrolo[3′,4′:4,5]thieno[2,3-d]-pyrimidin-4-one], 190 °C; for `Cc1ccc(C)c(N2CCN(CCn3cnc4sc(C(=O)N(C)C)c(C)c4c3=O)CC2)c1` [Example 31, 3,4-Dihydro-5-methyl-6-dimethylcarbamoyl-3-[2-(4-(2,5-dimethylphenyl)piperazin-1-yl)ethyl]thieno-[2,3-d]pyrimidin-4-one], 90 to 91 °C. For `COc1ccccc1N1CCN(CCn2cnc3sc4c(c3c2=O)CCN(C(C)=O)C4)CC1` [Example 116, 3,4,5,6,7,8-Hexahydro-7-acetyl-3-[2-(4-(2-methoxyphenyl)-piperazin-1-yl)ethyl]pyrido[4′,3′:4,5]thieno[2,3-d]-pyrimidin-4-one] the value was 170 to 172 °C; for `CN1CCc2c(sc3ncn(CCCN4CCN(c5ncccn5)CC4)c(=N)c23)C1` [Example 36, 3,4,5,6,7,8-Hexahydro-7-methyl-3-[3-(4-pyrimidin-2-yl-piperazin-1-yl)propyl]pyrido[4′,3′:4,5]thieno[2,3-d]-pyrimidin-4-imine], 161 to 163 °C. For `Cc1c(C(=O)N(C)C)sc2ncn(CCN3CCN(c4cccc5ccccc45)CC3)c(=O)c12` [Example 3, 3,4-Dihydro-5-methyl-6-dimethylcarbamoyl-3-[2-(4-(1-naphthyl)piperazin-1-yl)ethyl]thieno[2,3-d]pyrimidin-4-one], the melting point was 190 to 191 °C.

Turning to `COc1ccccc1N1CCN(CCn2c(C)nc3sc4c(c3c2=O)CCN(C)C4)CC1` [Example 120, 3,4,5,6,7,8-Hexahydro-2,7-dimethyl-3-[2-(4-(2-methoxyphenyl)-piperazin-1-yl)ethyl]pyrido[4′,3′:4,5]thieno-[2,3-d]pyrimidin-4-one], the melting point was in the range of 176 to 178 °C. For `CN1CCc2c(sc3ncn(CCN4CCN(c5ccccc5C#N)CC4)c(=O)c23)C1` [Example 68, 3,4,5,6,7,8-Hexahydro-7-methyl-3-[2-(4-(2-cyanophenyl)-piperazin-1-yl)ethyl]pyrido[4′,3′:4,5]thieno[2,3-d]-pyrimidin-4-one] the value was 162 to 164 °C.

The molecule `Cc1c(C(=O)N(C)C)sc2ncn(CCN3CCN(c4cccc(C(F)(F)F)c4)CC3)c(=O)c12` [Example 7, 3,4-Dihydro-5-methyl-6-dimethylcarbamoyl-3-[2-(4-(3-trifluoromethylphenyl)piperazin-1-yl)ethyl]thieno[2,3-d]-pyrimidin-4-one] yielded a melting point of 146 °C. As for `COc1ccccc1N1CCN(CCn2c(O)nc3sc4c(c3c2=O)CCN(C(C)=O)C4)CC1` [Example 121, 3,4,5,6,7,8-Hexahydro-7-acetyl-2-hydroxy-3-[2-(4-(2-methoxyphenyl)piperazin-1-yl)ethyl]pyrido[4′,3′:4,5]thieno-[2,3-d]pyrimidin-4-one], the figure is 135 to 137 °C. With `CCN1CCc2sc3ncn(CCN4CCN(c5ccccc5Cl)CC4)c(=O)c3c2C1` [Example 5, 3,4,5,6,7,8-Hexahydro-6-ethyl-3-[2-(4-(2-chlorophenyl)-piperazin-1-yl)ethyl]pyrido[3′,4′:4,5]thieno[2,3-d]-pyrimidin-4-one], the melting point was 148 to 150 °C. As for `CN1CCc2c(sc3ncn(CCN4CCN(c5ncccn5)CC4)c(=N)c23)C1` (as salt: tartrate) [Example 20, 3,4,5,6,7,8-Hexahydro-7-methyl-3-[2-(4-pyrimidin-2-yl-piperazin-1-yl)ethyl]pyrido[4′,3′:4,5]thieno[2,3-d]-pyrimidin-4-imine], the figure is 112 to 114 °C (dec.); as for `Cc1c(C(=O)N(C)C)sc2ncn(CCN3CCN(c4ccccc4C#N)CC3)c(=O)c12` (as salt: hydrochloride) [Example 15, 3,4-Dihydro-5-methyl-6-dimethylcarbamoyl-3-[2-(4-(2-cyanophenyl)piperazin-1-yl)ethyl]thieno[2,3-d]pyrimidin-4-one], 210 °C; as for `N=c1c2c3c(sc2ncn1CCN1CCN(c2ccccc2)CC1)CN(Cc1ccccc1)CC3` [Example 17, 3,4,5,6,7,8-Hexahydro-7-benzyl-3-[2-(4-phenylpiperazin-1-yl)-ethyl]pyrido[4′,3′:4,5]thieno[2,3-d]pyrimidin-4-imine], 168 to 170 °C. For `O=c1c2c3c(sc2ncn1CCN1CCN(c2ccccc2)CC1)CN(Cc1ccccc1)CC3` [Example 19, 3,4,5,6,7,8-Hexahydro-7-benzyl-3-[2-(4-phenylpiperazin-1-yl)-ethyl]pyrido[4′,3′:4,5]thieno[2,3-d]pyrimidin-4-one] the value was 70 to 71 °C; for `CN1CCc2c(sc3ncn(CCN4CCN(c5ccc6ccccc6n5)CC4)c(=O)c23)C1` [Example 65, 3,4,5,6,7,8-Hexahydro-7-methyl-3-[2-(4-quinolin-2-yl-piperazin-1-yl)ethyl]pyrido[4′,3′:4,5]thieno[2,3-d]-pyrimidin-4-one], 143 to 145 °C. For `CN1CCc2c(sc3ncn(CCN4CCN(c5ncccn5)CC4)c(=O)c23)C1` [Example 27, 3,4,5,6,7,8-Hexahydro-7-methyl-3-[2-(4-pyrimidin-2-ylpiperazin-1-yl)ethyl]pyrido[4′,3′:4,5]thieno[2,3-d]-pyrimidin-4-one] the value was 146 to 148 °C.
